Consider 13 compounds from patent US10029993B2, “Disubstituted 1, 2, 4-triazine compound” (MITSUBISHI TANABE PHARMA CORPORATION, priority 2014, dated 2018).

Chain of human CYP11B2 (P19099 25-503): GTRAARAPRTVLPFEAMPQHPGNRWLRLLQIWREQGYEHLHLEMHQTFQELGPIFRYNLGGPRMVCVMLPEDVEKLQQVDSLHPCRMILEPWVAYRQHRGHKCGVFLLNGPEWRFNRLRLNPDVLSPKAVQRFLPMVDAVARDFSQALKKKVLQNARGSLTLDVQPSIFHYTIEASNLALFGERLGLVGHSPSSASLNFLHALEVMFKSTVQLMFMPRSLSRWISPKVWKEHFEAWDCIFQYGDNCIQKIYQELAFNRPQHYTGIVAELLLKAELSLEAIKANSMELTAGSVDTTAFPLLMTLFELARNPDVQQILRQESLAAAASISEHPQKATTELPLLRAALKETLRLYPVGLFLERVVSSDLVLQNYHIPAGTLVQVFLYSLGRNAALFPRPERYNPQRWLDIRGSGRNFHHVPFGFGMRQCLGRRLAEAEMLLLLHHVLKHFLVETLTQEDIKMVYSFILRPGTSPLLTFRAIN

The assay addresses human CYP11B2 (Homo sapiens (Human), UniProt P19099). The assay can be described thus: Inhibitory effect on hCYP11B2 (aldosterone production by mitochondrial fraction of V79 cells stably expressing human CYP11B2, HTRF). Type of assay: biochemical. The note with it: 0.5 μmol/L deoxycorticosterone, 150 μmol/L NADPH, 1.5-2 hours at room temperature. The method, then:
Experimental Example 1 (Inhibitory Effect on hCYP11B2)
The pcDNA3.1-human CYP11B2 plasmid was transfected into a Chinese hamster lung fibroblast V79 cell line to produce a cell line stably expressing human CYP11B2 gene.
The cells were cultured and grown in the Dulbecco's modified Eagle's/Ham's medium supplemented with 10% fetal bovine serum and 1% G418 disulfate solution under the environment of 37° C., 95% air, and 5% CO2, and the grown cells were harvested.
Then, the cells were fractionated to obtain mitochondria by reference to a method described in Chabre et al. JCE 86 M 85 (11) 4060-68, 2000. In particular, the cells suspended in a 5 mmol/L Tris-HCl buffer (pH 7.4) containing 250 mmol/L sucrose were homogenized in a Teflon (Registered Trademark) Potter Elvehjem homogenizer, and then the suspension was centrifuged (800×g, 15 min.). The supernatant was separated and again centrifuged (10000×g, 15 min.) to obtain a pellet (mitochondrial fraction).
The mitochondrial fraction diluted with a buffer containing 10 mmol/L KH2PO4, 10 mmol/L Tris, 20 mmol/L KCl, 25 mmol/L sucrose, 5 mmol/L MgCl2, and 0.05% bovine serum albumin was dispensed to a 96-well plate. 0.5 μmol/L Deoxycorticosterone, 150 μmol/L NADPH and a compound of each concentration were added to each well, and incubated for 1.5-2 hours at room temperature to produce aldosterone. An amount of the produced aldosterone in the incubated solution was determined by using HTRF (Homogeneous Time Resolved Fluorescence) method.
IC 50 (nmol/L) was calculated by analyzing the aldosterone production inhibition rate (%) of each concentration of compounds by non-linear regression to a logistic curve.
(In general: In TR-FRET formats the signal depends on donor and acceptor labels being close together.)
By IC50 is commonly meant the concentration needed to halve the response being measured. A higher IC50 goes with lower potency. With `CC(C)NC(=O)CN1CCN(c2nncc(-c3cccc4c3COCC4)n2)CC1` [Example 218], the midpoint of inhibition, the IC50, lay at 9.8 nM.

Compound `CC(C)NC(=O)CN1CCN(c2nncc(-c3ccc4c(c3)CCO4)n2)CC1` [Example 219] came in with an IC50 of 3.1 nM.

In the case of `CC(C)NC(=O)CN1CCN(c2nncc(-c3ccc4ncsc4c3)n2)CC1` [Example 220], the IC50 came out at 20 nM.

Compound `CC(C)NC(=O)CN1CCN(c2nncc(-c3ccc(C(F)(F)F)cc3)n2)CC1` [Example 221] returned an IC50 of 2.4 nM.

`CC(C)NC(=O)CN1CCN(c2nncc(-c3ccc4c(c3)CNN4C)n2)CC1` [Example 222] gave an IC50 of 26 nM.

Turning to `c1nnc(N2CCOCC2)nc1CC1CCCCC1` [Example 233, 5-cyclohexylmethyl-3-morpholino-1,2,4-triazine], the IC50 was 20 nM. This IC50 and that of the compound before are within 1.5-fold of each other.

In turn, `Cc1ccccc1-c1cnnc(N(Cc2ccccn2)S(C)(=O)=O)n1` [Example 236, 3-[N-(methylsulfonyl)-N-(2-pyridylmethyl)amino]-5-(o-tolyl)-1,2,4-triazine] had an IC50 of 23 nM.

`Cc1ccccc1-c1cnnc(C2CCCN(c3ncccn3)C2)n1` (stereo not shown) [Example 244, 3-[1-(pyrimidine-2-yl)-piperidin-3-yl]-5-(o-tolyl)-1,2,4-triazine] showed an IC50 of 11 nM.

As for `CC(C)CC(=O)NN1CCN(c2nncc(-c3ccc(Cl)cc3)n2)CC1` [Example 251, 5-(4-chlorophenyl)-3-[4-[(3-methylbutanoyl)amino]piperazin-1-yl]-1,2,4-triazine], 7.5 nM corresponded to half-maximal inhibition (IC50).

`c1ccc(COc2cnnc(N3CCOCC3)n2)cc1` [Example 256, 5-benzyloxy-3-morpholino-1,2,4-triazine] had an IC50 of 26 nM.

The compound `Clc1ccc(CNc2cnnc(N3CCOCC3)n2)cc1` [Example 257, 5-(4-chlorobenzyl) amino-3-morpholino-1,2,4-triazine] yielded an IC50 of 13 nM.

Compound `CN(C)[C@@H]1CCC[C@H](NC(=O)CN2CCN(c3nncc(-c4ccc(F)cc4)n3)CC2)C1` [compound 160] showed an IC50 of 13 nM.

Take `C[C@H]1COCCC1NC(=O)CN1CCN(c2nncc(-c3ccc(Cl)cc3)n2)CC1` (stereo partly shown) [compound 161]: 6.1 nM corresponded to half-maximal inhibition (IC50).
